Measurements taken from the supplement of paper PMC10307832.

What was measured:
Assay in all cases: relative viability (nuclei count vs DMSO), 5 days (fraction); higher = more cells survive
[1] = compound: COc1cc2nccc(Oc3ccc(NC(=O)C4(C(=O)Nc5ccc(F)cc5)CC4)cc3)c2cc1OC [Cabozantinib] + Nc1ncn([C@H]2C[C@H](O)[C@@H](CO)O2)c(=O)n1 [Decitabine] (partner 2 µM)
How it was run: (§1)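 The day after seeding in 1536-well plates, lung cancer cell lines were treated by pin tool with a single drug, or with a fixed anchor-drug dose together with five library-drug doses (not always all listed) in √10 steps. After 5 days, a combined fix-and-stain solution (final 0.05% Triton X-100, 1% formaldehyde, 1 ug/ml Hoechst) was added. Nuclei counted on 4× images gave relative viability as treated counts over vehicle counts, reported as the median of duplicate plates.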

Zosuquidar + Phenformin = compound: O[C@@H](COc1cccc2ncccc12)CN1CCN([C@@H]2c3ccccc3[C@@H]3[C@H](c4ccccc42)C3(F)F)CC1 [Zosuquidar] + N=C(N)NC(=N)NCCc1ccccc1 [Phenformin] (partner 250 µM)
How it was run: as §1

Zosuquidar + Linsitinib = compound: O[C@@H](COc1cccc2ncccc12)CN1CCN([C@@H]2c3ccccc3[C@@H]3[C@H](c4ccccc42)C3(F)F)CC1 [Zosuquidar] + C[C@]1(O)C[C@@H](c2nc(-c3ccc4ccc(-c5ccccc5)nc4c3)c3c(N)nccn32)C1 [Linsitinib] (partner 1 µM)
How it was run: as §1

Cabozantinib + Foretinib = compound: COc1cc2nccc(Oc3ccc(NC(=O)C4(C(=O)Nc5ccc(F)cc5)CC4)cc3)c2cc1OC [Cabozantinib] + COc1cc2c(Oc3ccc(NC(=O)C4(C(=O)Nc5ccc(F)cc5)CC4)cc3F)ccnc2cc1OCCCN1CCOCC1 [Foretinib] (partner 0.25 µM)
How it was run: as §1

UMC-11
relative viability ([1]; first compound 0.02 µM): 0.654 | relative viability ([1]; first compound 0.06325 µM): 0.597 | relative viability ([1]; first compound 0.2 µM): 0.577 | relative viability ([1]; first compound 0.6325 µM): 0.615 | relative viability ([1]; first compound 2 µM): 0.554 | relative viability (Zosuquidar + Phenformin; first compound 0.01 µM): 0.32 | relative viability (Zosuquidar + Phenformin; first compound 0.03162 µM): 0.331 | relative viability (Zosuquidar + Phenformin; first compound 0.1 µM): 0.441 | relative viability (Zosuquidar + Phenformin; first compound 0.3162 µM): 0.386 | relative viability (Zosuquidar + Phenformin; first compound 1 µM): 0.324 | relative viability (Zosuquidar + Linsitinib; first compound 0.01 µM): 0.976 | relative viability (Zosuquidar + Linsitinib; first compound 0.03162 µM): 0.98 | relative viability (Zosuquidar + Linsitinib; first compound 0.1 µM): 1.05 | relative viability (Zosuquidar + Linsitinib; first compound 0.3162 µM): 1.07 | relative viability (Zosuquidar + Linsitinib; first compound 1 µM): 1.07 | relative viability (Cabozantinib + Foretinib; first compound 0.02 µM): 0.959 | relative viability (Cabozantinib + Foretinib; first compound 0.06325 µM): 1.21 | relative viability (Cabozantinib + Foretinib; first compound 0.2 µM): 1.01 | relative viability (Cabozantinib + Foretinib; first compound 0.6325 µM): 1.03 | relative viability (Cabozantinib + Foretinib; first compound 2 µM): 0.942
